# Results taken from publication PMC12584752, “Covalent fragment screening to inhibit the E3 ligase activity of bacterial NEL enzymes SspH1 and SspH2” (RSC Chemical Biology, 2025).
# Legend:
# glutathione = experiment: Glutathione reactivity assay; assay type: physicochemical; settings: 6 mM glutathione in PBS, 40 °C; read-out: GSH t1/2 (converted)
# Procedure: 10 mM DMSO stocks of compounds 6 and 7 were diluted 20-fold with acetonitrile, and then further 5-fold diluted with 6 mM glutathione in PBS. The reaction was shaken before incubation at 40 °C. The reaction mixture was analysed via UPLC-UV-MS up to eight times across 24 hours, compared to known reference compounds and samples of each compound in distilled water. UPLC conditions: flow rate: 800 μL min^−1; column: acquity UPLC BEH C18 1.7 μm 2.1 × 50 mm; column temperature: 37 °C; mobile phase A: 0.1% formic acid in H2O; mobile phase B: 0.1% formic acid in 100% ACN; run time: 2 minutes; gradient elution: 97% A to 0% A; UV conditions: 210 to 350 nm range; MS conditions: single quad, ESI+, scan range: 50–1000 Da. For each time point, the UV peak area of the parent peak was extracted at a single wavelength (e.g., 254 nm). A pseudo-first-order rate constant (k) for each compound was determined from the slope of a linear regression fit for a plot of the […] peak area of the parent compound versus the time differential for the eight time points; the t1/2 is calculated as follows: t1/2 = 0.693/k.
# SspH1 (C492) = target: T1, SspH1 (C492) (Salmonella typhimurium, UniProt D0ZVG2); experiment: IA-DTB competitive chemoproteomics in spiked HEK293T lysate; assay type: binding; settings: HEK293T lysate spiked with recombinant protein, four hours at RT
# T1 construct: Recombinant IpaH9.8 (21–545) and SspH1 (161–700) were incubated at 0.5 μM; His-tag (N, cleaved yes); made in house; host or cells: E. coli BL21
# T1 sequence (D0ZVG2 161-700): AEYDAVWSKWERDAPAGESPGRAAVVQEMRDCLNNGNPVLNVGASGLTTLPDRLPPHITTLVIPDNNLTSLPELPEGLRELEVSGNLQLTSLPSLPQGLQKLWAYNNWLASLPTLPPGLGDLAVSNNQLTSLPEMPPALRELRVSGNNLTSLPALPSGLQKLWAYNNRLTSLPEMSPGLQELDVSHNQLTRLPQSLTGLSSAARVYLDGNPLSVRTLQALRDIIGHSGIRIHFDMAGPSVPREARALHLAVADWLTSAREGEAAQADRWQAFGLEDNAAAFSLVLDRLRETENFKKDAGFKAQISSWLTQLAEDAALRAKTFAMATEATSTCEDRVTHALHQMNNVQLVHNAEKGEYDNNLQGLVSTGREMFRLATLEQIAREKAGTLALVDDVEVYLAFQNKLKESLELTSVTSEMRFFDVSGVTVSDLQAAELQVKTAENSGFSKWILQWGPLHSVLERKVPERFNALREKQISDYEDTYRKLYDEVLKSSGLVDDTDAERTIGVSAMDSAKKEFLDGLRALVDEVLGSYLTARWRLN
# Procedure: (§1) HEK293T lysate supplemented with recombinant SspH1 (161–700) and SspH2 (166–783) was treated with a dilution series […] of either compound 6 or 7 for four hours at RT. Following compound treatments, we used an iodoacetamide-desthiobiotin (IA-DTB) competitive chemoproteomics workflow to assess cysteine engagement.[52] Comparison of DMSO treated lysate with compound treated lysate enabled identification of peptides where IA-DTB labelling of cysteines was blocked due to fragment engagement (Fig. S5). […] Competition of the SspH2 C580 peptide occurred at lower concentrations compared to the SspH1 C492 peptide, which corroborated our previous kinetics experiments that both compounds label SspH2 faster than SspH1 (Fig. S4).
# (§2) Fig. 5 Characterisation of protein interactions by compounds 6 and 7. (A) SspH1 and SspH2 catalytic cysteine labelling with compound 6 (100–3.125 μM, 4 hours) in HEK293T lysate spiked with recombinant SspH1 and SspH2. Data are presented as mean ± SEM, n = 4. The curves were fitted with GraphPad Prism 10 using four parameter nonlinear regression with baseline correction to DMSO-treated samples. (B) SspH1 and SspH2 catalytic cysteine labelling with compound 7 (100–3.125 μM, 4 hours) in HEK293T lysate spiked with recombinant SspH1 and SspH2. Data are presented as mean ± SEM, n = 4. The curves were fitted with GraphPad Prism 10 using four parameter nonlinear regression with baseline correction to DMSO-treated samples. (C) Volcano plot of IA-DTB competition in SspH1 expressing HEK293T cells treated with compound 6 (50 μM, 4 hours). (D) Volcano plot of IA-DTB competition in SspH2 expressing HEK293T cells treated with compound 6 (50 μM, 4 hours). Data is shown as compared to DMSO treated samples, with competed peptides in the upper left-hand quadrant. Competed catalytic cysteine-containing peptides of HECT E3s (yellow), UCH DUBs (blue) and OTU DUBs (purple) are indicated. All proteomics experiments were performed with technical quadruplicates.
# (§3) A pellet of 50 × 10^6 HEK293T cells was resuspended in 5 mL lysis buffer (50 mM HEPES pH 8.0, 150 mM NaCl, 1% IGEPAL, 0.1% SDS, 0.5% Na-deoxycholate, supplemented with protease inhibitor cocktail (Sigma-Aldrich, P8340)). The lysate was sonicated and centrifuged (10 min, 17 000 × g) and the soluble fraction isolated. Protein concentrations were measured using a Rapid BCA Gold Protein Assay Kit (Thermo Scientific, A53226) and diluted to 0.75 mg mL^−1 with lysis buffer. The lysate was then spiked with 0.2 μM of each recombinant SspH1 (aa 161–700) and SspH2 (aa 166–783). For each condition, four wells were treated and processed separately, representing four technical replicates. 2 μL of 100× stocks of compounds 6 and 7 in DMSO (10–0.156 mM, and DMSO only control), and 200 μL lysate was added to a 96-well plate. […]
# SspH2 (C580) = target: T2, SspH2 (C580) (Salmonella typhimurium, UniProt D0ZPH9); experiment: as above; assay type: binding; settings: HEK293T lysate spiked with recombinant protein, four hours at RT
# T2 construct: Recombinant SspH1 (aa 161–700) and SspH2 (aa 166–783) were both characterised; His-tag (N, cleaved yes); made in house; host or cells: E. coli BL21
# T2 sequence (D0ZPH9 166-783): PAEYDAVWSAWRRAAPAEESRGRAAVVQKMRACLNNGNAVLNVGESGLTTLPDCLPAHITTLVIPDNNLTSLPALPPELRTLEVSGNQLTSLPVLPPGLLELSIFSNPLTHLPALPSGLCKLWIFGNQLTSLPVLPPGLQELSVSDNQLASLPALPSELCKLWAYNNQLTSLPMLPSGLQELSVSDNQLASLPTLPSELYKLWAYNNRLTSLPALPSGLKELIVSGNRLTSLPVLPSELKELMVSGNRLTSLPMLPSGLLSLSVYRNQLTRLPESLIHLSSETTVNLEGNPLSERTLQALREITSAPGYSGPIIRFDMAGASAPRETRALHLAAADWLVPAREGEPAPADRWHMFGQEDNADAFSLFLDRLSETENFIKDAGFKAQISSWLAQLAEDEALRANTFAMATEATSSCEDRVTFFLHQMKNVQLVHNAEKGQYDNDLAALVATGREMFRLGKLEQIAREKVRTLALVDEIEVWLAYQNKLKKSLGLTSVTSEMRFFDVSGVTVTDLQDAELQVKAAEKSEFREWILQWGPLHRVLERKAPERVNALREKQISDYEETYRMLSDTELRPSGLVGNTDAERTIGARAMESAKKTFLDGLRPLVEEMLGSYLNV
# Procedure: as §1, §2, §3
Structure (SMILES),half-life at 100 µM (glutathione) [h],competition of IA-DTB labelling of the C492 peptide for SspH1 (SspH1 (C492)),competition of IA-DTB labelling of the C580 peptide for SspH2 (SspH2 (C580))
Cc1cc(-c2nc3ccccc3n2C2CCN(C(=O)CCl)CC2)cc(C)c1O.Cl [compound 6],4.9,concentration-dependent competition,concentration-dependent competition
Cl.O=C(CCl)N1CCC(n2c(-c3ccc(C(F)(F)F)cc3)nc3ccccc32)CC1 [compound 7],4,concentration-dependent competition,concentration-dependent competition
